Measurements: US11203610B2, “2′3′ cyclic dinucleotides with phosphonate bond activating the sting adaptor protein” (INSTITUTE OF ORGANIC CHEMISTRY AND BIOCHEMISTRY ASCR, V.V.I., priority 2017, dated 2021)

Key:
AQ STING (G230A-R293Q) = target: T1, AQ STING (G230A-R293Q) (Homo sapiens, UniProt Q86WV6, G230A/H232R/R293Q); assay: Differential Scanning Fluorimetry with AQ STING; assay type: binding; conditions: thermal shift vs STING apoprotein; 150 μM CDN; 0.1 mg/ml truncated human AQ STING; SYPRO Orange; read-out: DSF ΔTm (° C.) AQ STING
T1 construct: truncated human WT STING or AQ STING (amino acid residues 140-343); 8xHis (N, cleaved yes); SUMO (N, cleaved yes); made in house; host or cells: E. coli Rosetta-gami B (DE3)
Experimental: (§1) WT STING and AQ STING Proteins
(§2) Purified PCR products were cleaved with restriction enzymes BamHI (cat. #R0136S, NEB, Ipswich, USA) and NotI (cat. #R0189S, NEB, Ipswich, USA) and cloned into the pSUMO vector linearized with the identical enzymes.
(§3) The resin was poured into a chromatography column, washed with 50 ml buffer A (50 mmol·l^−1 TrisCl (pH 8.0), 800 mmol·l^−1 NaCl, 3 mmol·l^−1 β-mercaptol; 10% glycerol; 20 mmol·l^−1 imidazole) and 8-His-SUMO tagged STING proteins were eluted with 15 ml buffer A containing 300 mmol·l^−1 imidazole. […] Proteins were concentrated with Amicon® Ultra-15 10 K device (cat. #UFC901008, Merck Millipore, Billerica, USA) and flash frozen in liquid N2.
(§4) Differential Scanning Fluorimetry with WT STING and AQ STING
(§5) 20 μL solutions of the reaction mixtures were pipetted in triplicates into 96 well optical reaction plates and thermal denaturation of samples were performed on real time PCR cycler (LightCycler® 480 Instrument II—Roche, Basel, Switzerland). The first derivative of the thermal denaturation curves was performed to calculate denaturing temperatures of STING—CDN complexes and STING apoproteins. The thermal shift for each CDN was calculated by subtracting the average denaturing temperature of STING apoprotein from the average denaturing temperature of STING CDN complex.

WT STING [1] = target: T2, WT STING (Homo sapiens, UniProt Q86WV6, H232R); assay: Differential Scanning Fluorimetry with WT STING; assay type: binding; parameters: truncated human WT STING or AQ STING (amino acid residues 140-343); 8xHis (N, cleaved yes); SUMO (N, cleaved yes); made in house; host or cells: E. coli Rosetta-gami B (DE3); conditions: thermal shift vs STING apoprotein; 150 μM CDN; 0.1 mg/ml truncated human WT STING; SYPRO Orange; read-out: DSF ΔTm (° C.) WT STING
Experimental: as §1, §2, §3, §4, §5
Target sequence in this assay (Q86WV6 140-343 H232R): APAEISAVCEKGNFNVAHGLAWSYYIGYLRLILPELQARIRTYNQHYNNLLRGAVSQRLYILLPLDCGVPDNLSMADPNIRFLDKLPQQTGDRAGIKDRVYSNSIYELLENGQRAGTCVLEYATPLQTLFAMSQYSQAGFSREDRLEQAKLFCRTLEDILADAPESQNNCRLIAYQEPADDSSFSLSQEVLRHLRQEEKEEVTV

WT STING [2] = target: T2, WT STING; assay: Digitonin assay using 293T wtSTING-FL reporter cells; assay type: cell-based; conditions: 293T wtSTING-FL cells; 30 minutes in Digitonin buffer, then 5 hours; ISRE firefly luciferase reporter; 8-point dose-response curve; read-out: Digitonin assay EC50 (μmol · l^−1) WT STING
Excerpt: ISRE Reporter Plasmid (pGL64.27-4xISRE)
Two complementary oligonucleotides of the sequence […] […] […] […] […] The oligonucleotides were mixed in equal molar amounts, hybridized, and cleaved by restriction endonucleases HindIII (cat. #. R0104S, NEB, Ipswich, USA) and BglII (cat. #R0144S, NEB, Ipswich, USA). Ultimately, they were ligated into plasmid pGL4.27 (cat. #E6651, Promega, Madison, USA) linearized with the same enzymes. As result the sequence with four ISRE sites was placed upstream of the minimum promoter of firefly luciferase reporter gene.
After 5 minutes incubation at room temperature (RT), 250 μL of the mixture was added dropwise to the cells in one well. Cells were incubated 36 hours at 37° C. with 5% CO2, and then detached with 0.05% Trypsin and 0.22 g/L EDTA (both cat. #L0941, Biowest, Riverside, USA).
Transfected cells were seeded onto poly-D-lysine coated six well plates at density 50,000 cells per 1 cm^2 in DMEM medium with high glucose containing 10% heat inactivated FBS, 30 g/mL blasticidin (cat. #ant-bl-05, InvivoGen, San Diego, USA), 0.06 mg/ml Penicillin G and 0.1 mg/ml Streptomycin Sulfate (both cat. #. L0018, Biowest, Riverside, USA). The medium was replenished every 3-4 days until visible colonies of cells resistant to blasticidin were formed.
Blasticidin resistant cells stably expressing WT STING were further transfected with […] plasmid following the same procedure as described above. […] Homogeneous culture of stably double transfected cells was prepared by limiting dilution of cells in 96 well plates and wells with cells were selected that originated from a single cell.
The medium was removed next day and three fold serial dilutions of compounds in Digitonin buffer containing 50 mmol·l^−1 HEPES (cat. #H3375, Sigma Aldrich, Czech Republic) pH 7.0, 100 mmol·l^−1 KCl, 3 mmol·l^−1 MgCl2, 0.1 mmol·l^−1 DTT (cat. #D0632, Sigma Aldrich, Czech Republic), 85 mmol·l^−1 Sucrose (cat. #S7903, Sigma Aldrich, Czech Republic), 0.2% BSA (cat. #A2153, Sigma Aldrich, Czech Republic), 1 mmol·l^−1 ATP (cat. #A1852, Sigma Aldrich, Czech Republic), 0.1 mmol·l^−1 GTP (cat. #G8877, Sigma Aldrich, Czech Republic), and 10 μg/mL Digitonin A (cat. #D141, Sigma Aldrich, Czech Republic) were added to the cells. The buffer was removed after 30 minutes incubation at 37° C. with 5% CO2, the cells were washed once with 100 μl of cultivation medium, and 100 μl of medium was added to each well. The plates with cells were incubated for 5 hours at 37° C. with 5% CO2, 50 μl of the medium was removed and 30 μl of ONE-Glo™ Luciferase Assay System reagent (cat. #E6120, Promega, Madison, USA) was added to each well. Luminescence was read on Synergy H1 (Biotek, Winooski, USA).
Target sequence in this assay (Q86WV6 whole entry H232R, the tested form may be a part): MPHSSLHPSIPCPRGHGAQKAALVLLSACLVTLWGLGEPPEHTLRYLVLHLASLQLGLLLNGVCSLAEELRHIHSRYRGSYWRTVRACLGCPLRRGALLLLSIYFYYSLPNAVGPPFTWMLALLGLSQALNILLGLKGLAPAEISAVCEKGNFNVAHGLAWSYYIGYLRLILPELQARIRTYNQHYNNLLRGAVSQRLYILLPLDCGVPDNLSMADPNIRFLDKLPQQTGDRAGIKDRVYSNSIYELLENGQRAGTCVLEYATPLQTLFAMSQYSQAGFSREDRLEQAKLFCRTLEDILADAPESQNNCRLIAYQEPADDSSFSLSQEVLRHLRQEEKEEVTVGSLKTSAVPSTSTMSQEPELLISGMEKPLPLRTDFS

T1 sequence (Q86WV6 140-343 G230A/H232R/R293Q): as the sequence (Q86WV6 140-343 H232R) above, with G91A, R154Q counted along it

Row | Structure (SMILES) | ΔTm at 150 µM (AQ STING (G230A-R293Q)) | ΔTm at 150 µM (WT STING [1]) | EC50 (WT STING [2])
1 | Nc1nc2c(ncn2[C@@H]2O[C@@H]3COP(=O)(O)O[C@@H]4[C@@H](OCP(=O)(O)O[C@@H]2[C@@H]3O)O[C@@H](n2cnc3c(N)ncnc32)[C@@H]4O)c(=O)[nH]1 [Compound 40, (1R,6R,8R,9R,10S,15R,17R,18R)-17-(2-amino-6-oxo-6,9-dihydro-1H-purin-9-yl)-8-(6-amino-9H-purin-9-yl)-3,9,12,18-tetrahydroxy-2,5,7,11,13,16-hexaoxa-3λ^5,12λ^5-diphosphatricyclo[13.2.1.0^6,10]octadecane-3,12-dione] | 18.7 °C | 10.8 °C | 20 nM
2 | Nc1nc2c(ccn2[C@@H]2O[C@@H]3COP(=O)(O)O[C@@H]4[C@@H](OCP(=O)(O)O[C@@H]2[C@@H]3O)O[C@@H](n2cnc3c(N)ncnc32)[C@@H]4O)c(=O)[nH]1 [Compound 41, (1R,6R,8R,9R,10S,15R,17R,18R)-17-{2-amino-4-oxo-3H,4H,7H-pyrrolo[2,3-d]pyrimidin-7-yl}-8-(6-amino-9H-purin-9-yl)-3,9,12,18-tetrahydroxy-2,5,7,11,13,16-hexaoxa-3λ^5,12λ^5-diphosphatricyclo[13.2.1.0^6,10]octadecane-3,12-dione] | 9.1 °C | 1.7 °C | 1900 nM
3 | Cc1cn([C@@H]2O[C@@H]3COP(=O)(O)O[C@@H]4[C@@H](OCP(=O)(O)O[C@@H]2[C@@H]3O)O[C@@H](n2cnc3c(N)ncnc32)[C@@H]4O)c2nc(N)[nH]c(=O)c12 [Compound 42, (1R,6R,8R,9R,10S,15R,17R,18R)-17-{2-amino-5-methyl-4-oxo-3H,4H,7H-pyrrolo[2,3-d]pyrimidin-7-yl}-8-(6-amino-9H-purin-9-yl)-3,9,12,18-tetrahydroxy-2,5,7,11,13,16-hexaoxa-3λ^5,12λ^5-diphosphatricyclo[13.2.1.0^6,10]octadecane-3,12-dione] | 2.1 °C | 0.1 °C | 45400 nM
4 | Nc1nc2c(ncn2[C@@H]2O[C@@H]3OCP(=O)(O)O[C@H]4[C@@H](O)[C@H](n5cnc6c(N)ncnc65)O[C@@H]4COP(=O)(O)O[C@@H]2[C@@H]3O)c(=O)[nH]1 [Compound 43, (1R,6R,8R,9R,10S,15R,17R,18S)-17-(2-amino-6-oxo-6,9-dihydro-1H-purin-9-yl)-8-(6-amino-9H-purin-9-yl)-3,9,12,18-tetrahydroxy-2,4,7,11,14,16-hexaoxa-3λ^5,12λ^5-diphosphatricyclo[13.2.1.0^6,10]octadecane-3,12-dione] | 16.6 °C | 8 °C | 5 nM
5 | Nc1nc2c(ncn2[C@@H]2O[C@@H]3OCP(=O)(O)O[C@@H]4[C@@H](OCP(=O)(O)O[C@@H]2[C@@H]3O)O[C@@H](n2cnc3c(N)ncnc32)[C@@H]4O)c(=O)[nH]1 [Compound 44, (1R,6R,8R,9R,10S,15R,17R,18S)-17-(2-amino-6-oxo-6,9-dihydro-1H-purin-9-yl)-8-(6-amino-9H-purin-9-yl)-3,9,12,18-tetrahydroxy-2,5,7,11,14,16-hexaoxa-3λ^5,12λ^5-diphosphatricyclo[13.2.1.0^6,10]octadecane-3,12-dione] | 10.3 °C | 2.6 °C | 330 nM
6 | Nc1nc2c(ncn2[C@@H]2O[C@@H]3OCP(=O)(O)O[C@H]4[C@H](O)[C@H](n5cnc6c(N)ncnc65)O[C@@H]4COP(=O)(O)OC2C3O)c(=O)[nH]1 (stereo partly drawn) [Compound 45, (6R,8R,9S,10S,15R,17R)-17-(2-amino-6-oxo-6,9-dihydro-1H-purin-9-yl)-8-(6-amino-9H-purin-9-yl)-3,9,12,18-tetrahydroxy-2,4,7,11,14,16-hexaoxa-3λ^5,12λ^5-diphosphatricyclo[13.2.1.0^6,10]octadecane-3,12-dione] | 25.3 °C | 18.7 °C | 10 nM
7 | Nc1nc2c(ncn2[C@@H]2O[C@@H]3OCP(=O)(O)O[C@H]4[C@@H](F)[C@H](n5cnc6c(N)ncnc65)O[C@@H]4COP(=O)(O)O[C@@H]2[C@@H]3O)c(=O)[nH]1 [Compound 46, (1R,6R,8R,9R,10R,15R,17R,18S)-17-(2-amino-6-oxo-6,9-dihydro-1H-purin-9-yl)-8-(6-amino-9H-purin-9-yl)-9-fluoro-3,12,18-trihydroxy-2,4,7,11,14,16-hexaoxa-3λ^5,12λ^5-diphosphatricyclo[13.2.1.0^6,10]octadecane-3,12-dione] | 26.2 °C | 18.7 °C | 10 nM
8 | Nc1nc2c(ncn2[C@@H]2O[C@@H]3OCP(=O)(O)O[C@H]4[C@@H](O)[C@H](n5ccc6c(N)ncnc65)O[C@@H]4COP(=O)(O)O[C@@H]2[C@@H]3O)c(=O)[nH]1 [Compound 47, (1R,6R,8R,9R,10S,15R,17R,18S)-17-(2-amino-6-oxo-6,9-dihydro-1H-purin-9-yl)-8-{4-amino-7H-pyrrolo[2,3-d]pyrimidin-7-yl}-3,9,12,18-tetrahydroxy-2,4,7,11,14,16-hexaoxa-3λ^5,12λ^5-diphosphatricyclo[13.2.1.0^6,10]octadecane-3,12-dione] | 10.8 °C | 3.4 °C | 100 nM
9 | Nc1ncc2ncn([C@@H]3O[C@@H]4COP(=O)(O)O[C@@H]5[C@H](O)[C@@H](OCP(=O)(O)O[C@H]4[C@H]3O)O[C@H]5n3cnc4c(=O)[nH]c(N)nc43)c2n1 [Compound 48, (1R,6R,8R,9R,10S,15R,17R,18S)-17-(2-amino-6-oxo-6,9-dihydro-1H-purin-9-yl)-8-(2-amino-9H-purin-9-yl)-3,9,12,18-tetrahydroxy-2,4,7,11,14,16-hexaoxa-3λ^5,12λ^5-diphosphatricyclo[13.2.1.0^6,10]octadecane-3,12-dione] | 11.6 °C | 3.9 °C | 170 nM
10 | CNc1ncnc2c1ncn2[C@@H]1O[C@@H]2COP(=O)(O)O[C@@H]3[C@H](O)[C@@H](OCP(=O)(O)O[C@H]2[C@H]1O)O[C@H]3n1cnc2c(=O)[nH]c(N)nc21 [Compound 49, (1R,6R,8R,9R,10S,15R,17R,18S)-17-(2-amino-6-oxo-6,9-dihydro-1H-purin-9-yl)-3,9,12,18-tetrahydroxy-8-[6-(methylamino)-9H-purin-9-yl]-2,4,7,11,14,16-hexaoxa-3λ^5,12λ^5-diphosphatricyclo[13.2.1.0^6,10]octadecane-3,12-dione] | 9.3 °C | 3.8 °C | 150 nM
